Test results published in US20230218644A1, “COMPOUNDS FOR USE IN THE TREATMENT OF VIRAL INFECTIONS BY RESPIRATORY SYNDROME-RELATED CORONAVIRUS” (SOM INNOVATION BIOTECH, S.A., priority 2020, published 2023).

Legend:
SARS-CoV-2 3CLpro = SARS-CoV-2 3CLpro (Severe acute respiratory syndrome coronavirus 2, UniProt P0DTD1); assay: biochemical; assay type: biochemical; conditions: for inhibition activity against SARS-CoV-2 3CLpro in vitro (in words): FRET assay, 30 tested compounds
SARS-CoV-2 = assay: microbe, parasite or virus in culture; assay type: cell-based; conditions: Severe acute respiratory syndrome coronavirus 2, Vero C1008, read-out: IC50 of inhibition of cell infection
MERS-CoV 3CLpro = MERS-CoV 3CLpro (Middle East respiratory syndrome-related coronavirus, UniProt K9N7C7); assay: biochemical
SARS-CoV-2 protease = SARS-CoV-2 protease (Severe acute respiratory syndrome coronavirus 2, UniProt P0DTD1); conditions: Fu et al., Nature Comm. 2020; cited from earlier work
SARS-CoV-2 virus = conditions: Vero E6 cells; Choy K. et al, Antivir. Res. 2020; read-out: IC50 antiviral effect; cited from earlier work

Sequence of MERS-CoV 3CLpro (K9N7C7 3248-3553 limits assumed): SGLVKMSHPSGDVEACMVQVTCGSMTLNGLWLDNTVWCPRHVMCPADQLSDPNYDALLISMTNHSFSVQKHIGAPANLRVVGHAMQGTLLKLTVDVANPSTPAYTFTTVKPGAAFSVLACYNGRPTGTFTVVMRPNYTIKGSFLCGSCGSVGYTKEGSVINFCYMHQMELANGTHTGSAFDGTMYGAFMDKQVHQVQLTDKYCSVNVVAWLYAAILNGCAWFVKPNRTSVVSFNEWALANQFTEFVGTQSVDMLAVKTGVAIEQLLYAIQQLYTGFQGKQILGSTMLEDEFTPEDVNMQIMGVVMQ

SMILES	inhibition activity against SARS-CoV-2 3CLpro in vitro (in words) (SARS-CoV-2 3CLpro)	IC50 (SARS-CoV-2) [µM]	IC50 (MERS-CoV 3CLpro) [µM]	IC50 (SARS-CoV-2 3CLpro) [µM]	other results
CCOC(=O)/C=C/[C@H](C[C@@H]1CCNC1=O)NC(=O)[C@@H](CC(=O)[C@@H](NC(=O)c1cc(C)on1)C(C)C)Cc1ccc(F)cc1	not active in vitro				
CN(C)[C@@H]1C(O)=C(C(N)=O)C(=O)[C@@]2(O)C(O)=C3C(=O)c4c(O)c(NC(=O)CN5CCCC5)cc(F)c4C[C@H]3C[C@@H]12 [ERAVACYCLINE diHcl, (4S,4aS,5aR,12aS)-4-(Dimethylamido)-7-fluoro-3,10,12,12a-tetrahydroxy-1,11-dioxo-9-[(1-pyrrolidinylacetyl)amino]-1,4,4a,5,5a,6,11,12a-octahydro-2-tetracenecarboxamide]	active in vitro	30.6	16.4	1.65	cytotoxicity / cell viability (in words) (VeroE6 cells): without affecting cell viability
COc1cccc(OCCCN)c1-c1cc(Nc2cnc(C#N)cn2)n[nH]1 [PREXASERTIB diHCl, 5-((5-(2-(3-Aminopropoxy)-6-methoxyphenyl)-1H-pyrazol-3-yl)amino)-2-pyrazinecarbonitrile]	active in vitro		12.4	2	
CC(C)C[C@H](NC(=O)[C@H](CCc1ccccc1)NC(=O)CN1CCOCC1)C(=O)N[C@@H](Cc1ccccc1)C(=O)N[C@@H](CC(C)C)C(=O)[C@@]1(C)CO1 [carfilzomib]					inhibition of SARS-CoV-2 protease (in words) (SARS-CoV-2 protease): failed to inhibit
CCN(CC)CCCC(C)Nc1ccnc2cc(Cl)ccc12 (racemic) [chloroquine, (RS)-N′-(7-chloroquinolin-4-yl)-N,N-diethyl-pentane-1,4-diamine]		~12			cytotoxicity / cell viability (in words) (VeroE6 cells): significant cytotoxicity
O=C(/C=C/c1ccc(O)c(O)c1)OC1CC(OC(=O)/C=C/c2ccc(O)c(O)c2)(C(=O)O)CC(O)C1O (stereo not drawn) [CYNARIN, 1,3-bis[[(E)-3-(3,4-dihydroxyphenyl)prop-2-enoyl]oxy]-4,5-dihydroxycyclohexane-1-carboxylic acid]	active in vitro		16.7	1.81	
COC(=O)C[C@](O)(CCCC(C)(C)O)C(=O)O[C@@H]1C(OC)=C[C@]23CCCN2CCc2cc4c(cc2[C@H]13)OCO4 [homorringtonine, 1-((1S,3aR,14bS)-2-Methoxy-1,5,6,8,9,14b-hexahydro-4H-cyclopenta(a)(1,3)dioxolo(4,5-h)pyrrolo(2,1-b)(3)benzazepin-1-yl) 4-methyl (2R)-2-hydroxy-2-(4-hydroxy-4-methylpentyl)butanedioate]					IC50 (SARS-CoV-2 virus): 2.55 µM
CC[C@H]1CN2CCc3cc(OC)c(OC)cc3[C@@H]2C[C@@H]1C[C@H]1NCCc2cc(OC)c(OC)cc21 [emetine]					IC50 (SARS-CoV-2 virus): 0.46 µM
CCC(CC)COC(=O)[C@H](C)N[P@](=O)(OC[C@H]1O[C@@](C#N)(c2ccc3c(N)ncnn23)[C@H](O)[C@@H]1O)Oc1ccccc1 [remdesivir, (2S)-2-{(2R,3S,4R,5R)-[5-(4-Aminopyrrolo[2,1-f][1,2,4]triazin-7-yl)-5-cyano-3,4-dihydroxy-tetrahydro-furan-2-ylmethoxy]phenoxy-(S)-phosphorylamino}propionic acid 2-ethyl-butyl ester]		~12			
